Data as given in publication PMC7894522, “Structure Based Design of Bicyclic Peptide Inhibitors of RbAp48” (Angewandte Chemie (International Ed. in English), 2020).
Starred links: 1 amine or outer side, 2 acyl side, 3 side chain; linkers in the order of their positions; H or OH if unused. Positions of bridges follow the written chain, without caps; N, C: chain ends. Residues, ends and D or L forms follow the SMILES beside them. TBMB = c1c(C[*:1])cc(C[*:3])cc1C[*:2]

Key:
[1] = target: RbAp48 (Homo sapiens, UniProt Q09028); assay: Competitive fluorescence polarization (FP) assay using complex of peptide 1 and RbAp48; format: binding; design: Full length RbAp48 was cloned; His tag followed by 3C cleavage site (N, cleaved yes); made in house; host or cells: Sf9 insect cells; conditions: for IC50: Table 1, competitive FP, tracer peptide 1 1 nM, RbAp48 15 nM, 20 mM Tris-HCl, 150 mM NaCl, 0.01% Tween-20, pH 7.5, 30 min room temperature, lower limit set by 15 nM protein, read-out: IC50; for FP activity in words: competitive FP assay
RbAp48, sequence (Q09028 whole entry): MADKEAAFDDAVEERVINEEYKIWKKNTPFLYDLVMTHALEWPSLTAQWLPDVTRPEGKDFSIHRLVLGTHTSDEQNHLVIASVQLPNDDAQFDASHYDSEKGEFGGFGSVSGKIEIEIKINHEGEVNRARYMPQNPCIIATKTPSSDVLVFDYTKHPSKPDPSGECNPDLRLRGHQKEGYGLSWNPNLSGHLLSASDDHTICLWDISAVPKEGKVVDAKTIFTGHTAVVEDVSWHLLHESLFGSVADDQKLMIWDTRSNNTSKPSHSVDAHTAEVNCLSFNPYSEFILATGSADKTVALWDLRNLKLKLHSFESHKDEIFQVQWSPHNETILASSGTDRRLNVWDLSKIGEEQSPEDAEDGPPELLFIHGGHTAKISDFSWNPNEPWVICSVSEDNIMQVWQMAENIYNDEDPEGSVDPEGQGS
In short: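 Sf9-expressed full-length RbAp48 (tag cleaved), 15 nM, displaced from 1 nM fluorescent peptide tracer in 20 mM Tris-HCl pH 7.5, 150 mM NaCl, 0.01% Tween-20. Read by FP (ex 485/em 535 nm) after 30 min at room temperature.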

[2] = test system: U2OS cells; assay: Morphological cell painting assay; format: cell-based; conditions: U2OS cells, 20 h, 579 parameters, fraction of significantly changed parameters vs DMSO; 10, 3 or 1 µM
Text: Encouraged by the promising results from the pulldown experiment, and in order to get insight into bioactivity and possible mode of action, we analyzed peptide 33 in a morphological cell painting assay. The cell painting assay is a target agnostic assay which determines a cells morphological profile after treatment with a compound of interest and compares it to the profiles of a set of reference compounds. ^[22] By identifying reference compounds with a similar profile a hypothesis of the compounds mode of action can be generated based on their annotated targets. ^[23] U2OS cells were treated with our compound and 579 parameters were analyzed. […] We therefore synthesized a variant modified with an N‐terminal TAT sequence to enhance its permeability (compound 49, see Table 1 and Supplemental Figure 4). ^[24] […] Applying compound 49 to the cell painting assay led to an induction of 5.9 % and the corresponding profile was compared to the set of 3000 reference compounds. […] To validate this hypothesis, we exposed U2OS cells to compound 49 and evaluated the levels of p53 by Western blot. […] The exact mechanism by which the compounds elevate levels of p53 requires further investigation. However, it has previously been shown that the NuRD complex, of which RbAp48 is a core component, is able to deacetylate p53 and thereby modulate its stability. ^[26] The effect is mediated by the MTA family of proteins from which the compounds described here are derived. […]
The described assay follows closely the method described by Bray et al. Initially, 5 µl U2OS medium were added to each well of a 384 -well plate (PerkinElmer CellCarrier -384 Ultra). Subsequently, U2OS cell were seeded with a density of 1600 cells per well in 20 µl medium. The plate was incubated for 10 min at the ambient temperatu re, followed by an a dditional 4 h incubation (37 °C, 5 % CO2). Compound treatment was performed with the Echo 520 acoustic dispenser (Labcyte) at final concentrations of 10 µM, 3 µM or 1 µM. Incubation with compound was performed for 20 h (37 °C, 5 % CO2). Subsequently, mitoc hondria were stained with Mito Tracker Deep Red (Thermo Fisher Scientific, Cat. No. M22426). The Mito Tracker Deep Red stock solution (1 mM) was diluted to a final concentration of 100 nM in prewarmed medium. The medium was removed fr om the plate leaving 1 0 µl residual volume and 25 µl of the Mito Tracker solution were added to each well. 22 The plate was incubated for 30 min in darkness (37 °C, 5 % CO2). To fix the cells 7 µl of 18.5 % formaldehyde in PBS were added, resulting in a fi nal formaldehyde conce ntration of 3.7 %. Subsequently, the plate was incubated for another 20 min in darkness (RT) and washed three times with 70 µl of PBS. (Biotek Washer Elx405). Cells were permeabilized by addition of 25 µl 0.1 % Triton X -100 to each well, followed by 15 min incubation (RT) in darkness. The cells were washed three times with PBS leaving a final volume of 10 µl. To each well 25 µl of a staining solution were added, which contains 1 % BSA, 5 µl/mL Phalloidin (Thermo Fisher Scientific, A123 81), 25 µg/ml Concanav alin A (Thermo Fisher Scientific, Cat. […]
conjugate (Thermo Fisher Scientific, Cat. No. W11262) and […] SYTO 14 solution (Thermo Fisher Scientific, Cat. No. S7576). The plate is incubated for 30 min (RT) in darkness and washed three times with 70 µl PBS. After the final washing step the PBS was not aspirated. The plates were sealed and centrifuged for 1 min at 500 rpm.
The plates were prepare d in triplicates with shifted layouts to reduce plate effects and imaged using a Micro XL High-Content Screening System (Molecular Devices) in 5 channels (DAPI: Ex350 -400/ Em410- […]
The generated images were processed with the CellProfiler package (https://cellprofiler.org/, version 3.0.0) on a computing cluster of the Max Planck Society to extract 1716 cell features (parameters) per microscope site. The data was then further aggregated as medians per well (9 sites -> 1 well), then […]

[3] = test system: p53; assay: p53 expression level assay (western blot); format: cell-based; conditions: U2OS cells, 10 µM, 24 h, p53 vs alpha tubulin, two biological replicates
Text: Encouraged by the promising results from the pulldown experiment, and in order to get insight into bioactivity and possible mode of action, we analyzed peptide 33 in a morphological cell painting assay. The cell painting assay is a target agnostic assay which determines a cells morphological profile after treatment with a compound of interest and compares it to the profiles of a set of reference compounds. ^[22] By identifying reference compounds with a similar profile a hypothesis of the compounds mode of action can be generated based on their annotated targets. ^[23] U2OS cells were treated with our compound and 579 parameters were analyzed. […] We therefore synthesized a variant modified with an N‐terminal TAT sequence to enhance its permeability (compound 49, see Table 1 and Supplemental Figure 4). ^[24] […] Applying compound 49 to the cell painting assay led to an induction of 5.9 % and the corresponding profile was compared to the set of 3000 reference compounds. […] To validate this hypothesis, we exposed U2OS cells to compound 49 and evaluated the levels of p53 by Western blot. […]
U2OS cells were incubated with 10 µM compound 49, 50 or DMSO (DMSO 0.5%) for 24 h followed by lysis for western blotting analysis. p53 ex pression was monitored using fluorescent antibody. Signal ration between p53 and loading control (alpha tubulin) was measured. […]

Compound | IC50 [1] [nM] | FP activity in words [1] | induction [2] [%] | levels of p53 [3]
C[C@H](NC(=O)[C@@H]1CSCc2cc3cc(c2)CSC[C@H](NC(=O)[C@H](CCCNC(=N)N)NC(=O)[C@H](CCCCN)NC(=O)[C@H]([C@@H](C)O)NC(=O)[C@@H](NC(=O)CNC(=O)[C@H](CCC(N)=O)NC(=O)[C@@H]2CCCN2C(=O)[C@H](CCCNC(=N)N)NC(=O)[C@H](CCCNC(=N)N)NC(=O)[C@H](CCCNC(=N)N)NC(=O)[C@H](CCC(N)=O)NC(=O)[C@H](CCCNC(=N)N)NC(=O)[C@H](CCCNC(=N)N)NC(=O)[C@H](CCCCN)NC(=O)[C@H](CCCCN)NC(=O)[C@H](CCCNC(=N)N)NC(=O)CN)CSC3)C(=O)N[C@@H](C)C(=O)N[C@@H](CCCNC(=N)N)C(=O)N[C@@H](CCCNC(=N)N)C(=O)N2CCC[C@H]2C(=O)N[C@@H](Cc2ccc(O)cc2)C(=O)N[C@@H](CCCCN)C(=O)N2CCC[C@H]2C(=O)N1)C(N)=O [Peptide 49] (H-GRKKRRQRRRPQGCTKRCARRPYKPCA-NH2; linker 14-18-26 via TBMB) | 4.4 ± 1.4 | slightly more active than its parent compound 33 | 5.9 | increased
N=C(N)NCCC[C@H](NC(=O)CN)C(=O)N[C@@H](CCCCN)C(=O)N[C@@H](CCCCN)C(=O)N[C@@H](CCCNC(=N)N)C(=O)N[C@@H](CCCNC(=N)N)C(=O)N[C@@H](CCC(N)=O)C(=O)N[C@@H](CCCNC(=N)N)C(=O)N[C@@H](CCCNC(=N)N)C(=O)N[C@@H](CCCNC(=N)N)C(=O)N1CCC[C@H]1C(=O)N[C@@H](CCC(N)=O)C(N)=O [Peptide 50, reference compound] | 1240 ± 358 | weakly inhibit the interaction | – | no increase
